The values that follow come from US10376504B2, “Substituted quinolinones as PDE9 inhibitors” (Merck Sharp & Dohme Corp., priority 2015, dated 2019).

As a reminder, the Ki is the dissociation constant of the complex between target and ligand, obtained from inhibition or displacement. Read a high Ki as lower affinity.

Chain of human PDE9 (PDE9A2) (O76083 other isoform, or with tags, fused parts or gaps): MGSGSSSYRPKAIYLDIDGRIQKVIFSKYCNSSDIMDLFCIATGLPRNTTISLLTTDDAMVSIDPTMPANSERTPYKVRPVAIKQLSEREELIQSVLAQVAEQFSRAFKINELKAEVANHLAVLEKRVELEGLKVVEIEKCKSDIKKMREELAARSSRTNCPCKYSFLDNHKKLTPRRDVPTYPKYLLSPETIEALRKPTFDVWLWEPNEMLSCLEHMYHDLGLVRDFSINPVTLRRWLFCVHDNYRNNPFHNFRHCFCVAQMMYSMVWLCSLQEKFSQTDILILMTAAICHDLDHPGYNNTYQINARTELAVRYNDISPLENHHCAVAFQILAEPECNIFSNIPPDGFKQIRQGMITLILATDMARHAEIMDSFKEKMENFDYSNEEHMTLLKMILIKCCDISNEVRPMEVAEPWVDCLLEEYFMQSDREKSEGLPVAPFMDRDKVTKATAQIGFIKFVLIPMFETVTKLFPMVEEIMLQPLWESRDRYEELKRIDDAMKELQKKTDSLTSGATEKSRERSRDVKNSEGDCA

The experiment has as its target human PDE9 (PDE9A2) (Homo sapiens (Human), UniProt O76083). The experiment in a line: PDE9 IMAP fluorescence polarization (FP) inhibition assay. Format: biochemical. The settings on record: FAM-cGMP substrate 50 nM, room temperature. The protocol:
The activity of the compounds in accordance with the present invention as PDE9 inhibitors may be readily determined without undue experimentation using a fluorescence polarization (FP) methodology that is well known in the art (Huang, W., et al., J. Biomol Screen, 2002, 7: 215).
In a typical experiment the PDE9 inhibitory activity of the compounds of the present invention was determined in accordance with the following experimental method. Rhesus PDE9A2 was amplified from rhesus whole brain cDNA (Biochain Institute) essentially as described in Hutson, et al. Neuropharmacology (2011) 61(4):665-676. HEK 293 or CHO cells over-expressing rhesus or rat PDE9A2 (created by DiscoverX from mRNA Genbank accession # NM_138543) respectively were lysed in 20 mM HEPES, 1 mM EDTA buffer with protease inhibitors (Roche, Indianapolis, Ind.). After brief homogenization, cells were pelleted via centrifugation at 75,000×g for 20 min at 4° C. The pellets were re-suspended, centrifuged and re-pelleted again in the same manner. The membrane fraction was collected in 20 mM HEPES, 1 mM MgCl2 with protease inhibitors. Human PDE9 (PDE9A2, GenBank Accession No. NM_001001567), full length with N-terminal GST tag, was purchased from BPS Bioscience. The fluorescence polarization assay for cyclic nucleotide phosphodiesterases was performed using an IMAP® FP kit supplied by Molecular Devices, Sunnyvale, Calif. (product # R8139). IMAP® technology has been applied previously to phosphodiesterase assays (Huang, W., et al., J. Biomol Screen, 2002, 7: 215). Assays were performed at room temperature in 384-well microtiter plates with an incubation volume of 20.2 μL. Solutions of test compounds were prepared in DMSO and serially diluted with DMSO to yield 8 μL of each of 10 solutions differing by 3-fold in concentration, at 32 serial dilutions per plate. 100% inhibition is determined using a known PDE9 inhibitor, such as 1-(2-chlorophenyl)-6-[(2R)-3,3,3-trifluoro-2-methylpropyl]-1,5-dihydro-4H-pyrazolo[3,4-d]pyrimidine-4-one (BAY 73-6691) (Wunder et al, Mol. Pharmacol., 2005, 68(6): 1775-81), (6-[(3S,4S)-4-methyl-1-(pyrimidin-2-ylmethyl)pyrrolidin-3-yl]-1-(tetrahydro-2H-pyran-4-yl)-1,5-dihydro-4H-pyrazolo[3,4-d]pyrimidin-4-one (PF-04447943) (Wager et al., ACS Chemical Neuroscience, 2010, 1:435-449). 0% of inhibition is determined by using DMSO (1% final concentrations). A Labcyte Echo 555 (Labcyte, Sunnyvale, Calif.) is used to dispense 200 nL from each well of the titration plate to the 384 well assay plate. Rhesus membrane preps were diluted to 4 ng/ml, rat membrane preps diluted to 13 ng/ml, and human PDE9A2 diluted to 1 ng/ml. FAM-labeled cGMP substrate (Molecular Devices, Sunnyvale, Calif.) was at a concentration of 100 nM (Km of PDE9 for cGMP is 70-170 nM) in the assay buffer (10 mM Tris HCl, pH 7.2, 10 mM MgCl2, 0.05% NaN3 0.01% Tween-20, and 1 mM DTT). PDE9 enzyme mix and compounds were mixed and incubated at room temperature for 30 min. Following which, FAMcGMP substrate was added, shaken and incubated for an additional 60 min at room temperature. The final concentrations of rhesus and rat membrane preparations were 2 ng/ml and 6.5 ng/ml, respectively, while the human PDE9 was used at a final concentration of 0.5 ng/ml. The final concentration of FAM-cGMP was 50 nM. After the incubation period, the enzymatic reaction was stopped by addition of binding solution (IMAP-FP, Molecular Devices, comprised of 80% Solution A, 20% Solution B and a 1:600 dilution of binding reagent) to each well. The plates were shaken then incubated at room temperature for 1 h prior to determining the fluorescence polarization (mP) using a Perkin Elmer EnVision™ plate reader (Waltham, Mass.).
Fluorescence polarization (mP) was calculated from the parallel (S) and perpendicular (P) fluorescence of each sample well and the analogous values for the median control well, containing only substrate (So and Po), using the following equation: Polarization(mP)=1000*(S/So−P/Po)/(S/So+P/Po). […]
For orientation: Fluorescence polarisation rises when a labelled molecule tumbles more slowly, as on binding a larger partner.
In the case of `N#Cc1c(NCCC2COC2)c2ccccc2[nH]c1=O` [Example 1-12, 4-((2-(oxetan-3-yl)ethyl)amino)-2-oxo-1,2-dihydroquinoline-3-carbonitrile], the inhibitory constant (Ki) is 71.1 nM. This counts as double-digit nanomolar. The same measure for `CC1(C)CCN(c2c(C#N)c(=O)[nH]c3ccccc23)CC1` [Example 1-11, 4-(4,4-dimethylpiperidin-1-yl)-2-oxo-1,2-dihydroquinoline-3-carbonitrile]: 26.3 nM; for `CCN(CC)c1c(C#N)c(=O)[nH]c2ccccc12` [Example 1-10, 4-(diethylamino)-2-oxo-1,2-dihydroquinoline-3-carbonitrile]: 88.9 nM; for `N#Cc1c(N2CC[C@@H](n3cccn3)C2)c2ccccc2[nH]c1=O` [Example 1-7, (R)-4-(3-[1H-pyrazol-1-yl]pyrrolidin-1-yl)-2-oxo-1,2-dihydroquinoline-3-carbonitrile]: 7.5 nM. `N#Cc1c(N2CCCCCC2)c2ccccc2[nH]c1=O` [Example 1-8, 4-(azepan-1-yl)-2-oxo-1,2-dihydroquinoline-3-carbonitrile] yielded a Ki of 18 nM. The value for `N#Cc1c(N2CCC2)c2ccccc2[nH]c1=O` [Example 1-9, 4-(azetidin-1-yl)-2-oxo-1,2-dihydroquinoline-3-carbonitrile] was 5550 nM.
